From patent US20240075087A1, “COMPOSITIONS AND METHODS COMPRISING HEMP EXTRACT FOR THE TREATMENT OF ANIMALS IN NEED” (Portland Technology Holdings LLC, priority 2021, published 2024) come the findings set out here.

The structures appear in SMILES notation. In brackets after ≈: the same amount, converted by molar mass.

Data set [1] has as its target CYP3A12 (Canis lupus familiaris, UniProt P24463). Description: CYP3A12 activity inhibition in pooled dog liver microsomes. The procedure: Inhibition potency (i.e. IC50) is determined by measuring the decrement in metabolism of P450-specific marker activities in pooled dog liver microsomes with increasing concentrations of CBD, CBDA, and hemp extracts. P450-specific markers include bupropion 6-hydroxylation (CYP2B11), dextromethorphan 0-demethylation (CYP2D15) and omeprazole sulfoxidation (CYP3A12). IC50 values are determined both with and without preincubation of liver microsomes with potential inhibitor to evaluate whether there is mechanism-based time-dependent inhibition.
The following parameters are assessed: (1) the rates of CBD and CBDA metabolism by dog liver microsomes and by 11 recombinant canine P450 enzymes; (2) the predicted percent contribution of each P450 to total CBD and CBDA metabolism in dog liver; and (3) IC50 values for inhibition of CYP2B11, CYP2D15 and CYP3A12 metabolism in dog liver, both with and without inhibitor preincubation.
FIGS. 13-15 show activity assays for CYP3A12 (FIGS. 13A and 13B), CYP2B11 (FIGS. 14A and 14B), and CYP2D15 (FIGS. 15A and 15B). Assays using either no preincubation (FIGS. 13A, 14A, and 15A) or 20 minutes of preincubation (FIGS. 13B, 14B, and 15B) were performed.
Background: Liver microsomes are a subcellular fraction often used to study metabolism.

Data set [2] addresses T1, canine P-glycoprotein (Canis lupus familiaris, UniProt C0KKU9).
T1 construct: host or cells: MDCK PGP cells (canine P-gp expressing cell line)
As to the kind of experiment: P-glycoprotein competitive transport assay (rhodamine 123, MDCK PGP cells). It is filed as in vitro ADME. The conditions noted are these: highest concentration tested, 1,000 ng/mL. The method, then:
In this second study, a competitive P-gp substrate assay incorporating a canine P-gp expressing cell line is used to assess each test compound's ability to compete with the P-gp substrate rhodamine 123. Each concentration is tested on 3 separate days with same-day duplicates. Positive controls and negative controls are included in each run.
Results for each concentration of test compound evaluated are reported as non-P-gp substrate, weak P-gp substrate, moderate P-gp substrate, or strong P-gp substrate. The concentrations for CBD and CBDA are as follows: 10 ng/mL, 100 ng/mL and 1,000 ng/mL.
A competitive P-gp substrate assay using a canine P-gp expressing cell line was used to assess CBDA and/or CBD as a substrate for canine P-glycoprotein.

Data set [3] deals with CMT12 cell line. As to the kind of experiment: Annexin V-FITC apoptosis assay, CMT12. It counts as cell-based, canine. The conditions noted are these: 15 μg/mL CBD, VC 10.9±2.0%. The method, then: (§1) Apoptosis after 4 and 8 hours treatment is measured using Annexin-V staining (Invitrogen Annexin V-FITC staining kit, Carlsbad, California). Briefly, cells are detached with Accumax (Innovative Cell Technologies, San Diego, California), collected and centrifuged for 10 m at 1000 g at 4° C. The pellet is washed once with PBS before resuspension in Annexin Binding Buffer (ABB; 10 mM HEPES, 140 mM NaCl, 2.5 mM CaCl2, pH 7.4) at a density of approximately 1×10^6 cell/mL. […] After the incubation, ABB is added to the cell suspension and kept on ice until fluorescence is measured with the BD FACScalibur flow cytometer using an argon laser (BD Biosciences, Ashland, Oregon). Ten thousand events are collected per sample. Analysis is performed with the FlowJo software (Version 10.7.1. Becton, Dickinson, Ashland, Oregon) by first gating based on the forward- and side-scatter characteristics for each cell line followed by Annexin V-FITC positive cells. Negative fluorescence controls are unstained cells. Three independent replicates are examined for each treatment.

Data set [4] deals with 17-71 cell line. Description: Annexin V-FITC apoptosis assay, 17-71. The conditions noted are these: 15 μg/mL CBD, VC 10.1±0.4%. It counts as cell-based, canine. The method, then:
as §1

Data set [5] has as its system CMT12 mammary gland carcinoma cell line. Description: 48 hours MTT proliferation assay, CMT12. It counts as cell-based, canine. The conditions noted are these: pure compound. The procedure:
3-(4,5-Dimethylthaizol-2-yl)-2,5-diphenyltetrazolium bromide (MTT) assays are performed on all previously described cell lines; CMT12, HMPOS, D17, Abrams and 17-71. […] Cells are treated with vehicle (methanol or ethanol/DMSO mix) or various concentrations of the CBD, CBDA or CBD-rich hemp extract ranging from 0.42 to 20 μg/mL in serial dilution for 48 hours. MTT assays are performed after 48 hours of treatment by adding 20 μL of MTT dye ([…] filtered 5 mg/mL in phosphate-buffered saline [PBS]) to each well and incubating at 37° C. in 5% CO2 for 2 hours. The media is then aspirated, washed once with 200 μL of PBS and then solubilized in 200 μL of ethanol. Immediate analysis of the optical density of each well is performed using a spectrophotometric plate reader (Epoch; Biotek, Winooski, Vermont) at a wavelength of 570 nm as previously described (e.g., Vega-Avila E and Pugsley M K, An overview of colorimetric assay methods used to assess survival or proliferation of mammalian cells, Proc West Pharmacol Soc., 2011, 54, pp. 10-14 which is incorporated herein by reference in its entirety). The percent proliferating cells of control for each concentration is averaged and reported as a mean+/—SD from triplicate wells over three experiments.
For CBD, CBDA and hemp extract concentrations needed to obtain a 50% inhibition of cell proliferation (IC50) are then calculated across experiments by Probit analysis using XLFit5 software (IDBS, Guildford, United Kingdom) for reporting the results for each cell line.
Background: Tetrazolium dyes change colour on reduction, which living cells bring about.

Data set [6] concerns 17-71 cells. As to the kind of experiment: Trypan blue exclusion assay, 17-71. It is filed as cell-based, canine. The conditions noted are these: 48 hours, vehicle control 3±1%. The procedure:
The trypan blue exclusion assay is performed on canine primary dermal fibroblasts (CDF) because of the slow rate of proliferation and low metabolic activity of these normal canine cells, precluding productive MTT assays. The effects of CBD treatments are compared with the results obtained on the 17-71, CMT12 and D17 cell lines for comparative purposes. For the CDF cells, applied cell extracellular matrix (ABM) is applied overnight to 24-well tissue culture-treated plates (Applied Biological Materials [ABM], Richmond, BC, Canada). For all cell lines, cells are plated at a density of 5×10^3 cells per well and incubated until 60% confluent before treatment with methanol vehicle control, 3.75, 7.5, and 15 μg/mL of CBD to cells for 48 hours. Cells are then trypsinized, collected and centrifuged at 1900 g for 10 minutes. With the exception of the 17-71 cell line, cells are detached with Accumax (Invitrogen, Carlsbad, California). The cell pellet is resuspended in 0.1% trypan blue (Sigma Aldrich, St Louis, Missouri) in PBS solution, loaded on a Cell Countess disposable cell counting slide with automatic counting of all positively stained cells in the Countess II Cell Counter under identical settings for each cell line (Invitrogen; ThermoFisher Scientific, Carlsbad, California) using the same parameters for each cell line. All treatments are performed in triplicate and the percent of viable cells are averaged.

Chain of CYP3A12 (P24463 whole entry): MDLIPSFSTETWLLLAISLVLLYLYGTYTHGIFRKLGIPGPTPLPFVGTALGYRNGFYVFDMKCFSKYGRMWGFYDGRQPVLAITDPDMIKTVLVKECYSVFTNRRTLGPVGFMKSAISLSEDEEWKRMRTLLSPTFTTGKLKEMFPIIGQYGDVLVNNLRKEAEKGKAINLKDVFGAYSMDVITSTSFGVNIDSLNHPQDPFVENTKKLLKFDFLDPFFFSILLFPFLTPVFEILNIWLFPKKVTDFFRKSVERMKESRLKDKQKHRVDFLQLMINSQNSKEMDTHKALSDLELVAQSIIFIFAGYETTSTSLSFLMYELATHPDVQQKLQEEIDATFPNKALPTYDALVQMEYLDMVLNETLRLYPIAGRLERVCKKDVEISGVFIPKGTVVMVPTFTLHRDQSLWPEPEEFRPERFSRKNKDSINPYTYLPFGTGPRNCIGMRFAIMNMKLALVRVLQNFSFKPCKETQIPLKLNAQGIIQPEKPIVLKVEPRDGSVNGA
T1 sequence (C0KKU9 1-1281): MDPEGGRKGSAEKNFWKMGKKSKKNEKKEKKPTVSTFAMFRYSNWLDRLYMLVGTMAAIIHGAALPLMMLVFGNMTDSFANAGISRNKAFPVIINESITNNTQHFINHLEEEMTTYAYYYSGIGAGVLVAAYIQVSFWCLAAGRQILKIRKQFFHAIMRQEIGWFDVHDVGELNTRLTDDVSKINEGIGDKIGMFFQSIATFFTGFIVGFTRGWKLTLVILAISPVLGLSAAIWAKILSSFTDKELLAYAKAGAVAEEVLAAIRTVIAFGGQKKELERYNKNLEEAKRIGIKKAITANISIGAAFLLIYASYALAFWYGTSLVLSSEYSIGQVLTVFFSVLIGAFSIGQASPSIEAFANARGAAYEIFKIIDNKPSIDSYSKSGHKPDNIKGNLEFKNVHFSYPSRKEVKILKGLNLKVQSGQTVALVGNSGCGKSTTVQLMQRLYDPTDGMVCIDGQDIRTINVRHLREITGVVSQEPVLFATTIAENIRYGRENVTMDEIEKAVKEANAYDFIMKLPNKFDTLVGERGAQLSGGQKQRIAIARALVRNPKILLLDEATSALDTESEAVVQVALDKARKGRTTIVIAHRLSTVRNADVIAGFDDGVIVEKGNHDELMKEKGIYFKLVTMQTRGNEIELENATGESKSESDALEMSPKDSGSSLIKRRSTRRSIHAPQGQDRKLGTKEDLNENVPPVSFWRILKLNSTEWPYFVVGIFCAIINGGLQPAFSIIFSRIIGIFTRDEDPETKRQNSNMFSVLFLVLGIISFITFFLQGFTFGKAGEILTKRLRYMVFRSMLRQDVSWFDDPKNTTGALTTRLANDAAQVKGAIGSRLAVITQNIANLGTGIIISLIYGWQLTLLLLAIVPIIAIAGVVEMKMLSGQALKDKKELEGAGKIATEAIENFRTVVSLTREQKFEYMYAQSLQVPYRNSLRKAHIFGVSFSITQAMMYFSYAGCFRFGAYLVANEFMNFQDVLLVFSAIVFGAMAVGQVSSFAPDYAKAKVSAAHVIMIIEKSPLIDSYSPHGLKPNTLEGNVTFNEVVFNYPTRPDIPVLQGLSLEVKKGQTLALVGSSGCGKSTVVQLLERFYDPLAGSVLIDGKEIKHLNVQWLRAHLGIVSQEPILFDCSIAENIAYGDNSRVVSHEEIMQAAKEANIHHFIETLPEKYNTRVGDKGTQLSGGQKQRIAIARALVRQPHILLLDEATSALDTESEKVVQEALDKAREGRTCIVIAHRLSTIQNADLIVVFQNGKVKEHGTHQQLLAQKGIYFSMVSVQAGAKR

Regarding `C=C(C)[C@@H]1CCC(C)=C[C@H]1c1c(O)cc(CCCCC)cc1O` [CBD, cannabidiol], the IC50 in data set [1] was less than 1000 nM; in data set [5] (Canis lupus familiaris, read-out: IC50 (Probit)), 3.5 µg/mL (≈ 11.1 µM). Moreover, the “time-dependent inhibition (TDI)” value in data set [1] (CYP3A12, no preincubation vs 20 min preincubation, 10 μM) was “showed time-dependent inhibition (TDI)”. The P-gp substrate classification result in data set [2] is given as “not a substrate for canine PGP”. Besides, the “Annexin V positive staining cells” value was 15.7±2.2% in data set [3] (4 hours), 21.5±2.5% in data set [3] (8 hours), 31.0±10.8% in data set [4] (4 hours) and 79.0±6.1% in data set [4] (8 hours). In data set [5] (P<0.05), the “concentrations that significantly diminished proliferation vs vehicle control” value is no less than 2.5 µg/mL. The “percent trypan blue positive cells” value is reported as 7±4% in data set [6] (3.75 μg/mL CBD), 27±8% in data set [6] (7.5 μg/mL CBD) and 55%±6% in data set [6] (15 μg/mL CBD).

By IC50 is commonly meant the point on the concentration scale where inhibition reaches its midpoint.
